Laboratory results as given in patent publication US11124518B2, “L,2-dihydro-3H-pyrazolo[3,4-D]pyrimidin-3-one analogs” (Recurium IP Holdings, LLC, priority 2017, dated 2021).
Where a name gives a salt, the structure may show the parent alone.

Key:
Wee1 kinase = Wee1 kinase (Homo sapiens (Human), UniProt P30291); test: Wee1 Binding Assay (FRET); conditions: Wee1 kinase 2 nM, tracer 178 50 nM, 60 min at RT, read-out: Wee1 Enzymatic IC50
Description: Wee 1 kinase was determined by using Flurorescence Resonance Energy Transfer (FRET) assay. […] The plate was shaken for 30 seconds, incubated for 60 min at RT, and recorded on fluorescence plate reader.

H23 cells = test: H23 Cellular Proliferation Assay (CellTiter-Glo); format: cell-based; conditions: Homo sapiens, NCI-H23, 96 h, 4 days
Description: Cells were treated with compounds diluted in DMSO and a 9 point 5-fold serial dilutions. Plates were placed in 37° C., 5% CO2 to incubate for 4 days. Before they were developed by adding 100 μL of CellTiter-Glo reagent (Promega) to the assay plate, plates were shaken briefly for 2 mins and allowed to incubate at RT for 10 mins. The plates are read with a M5e plate reader according to CellTiter-Glo protocol. The GraphPad Prism software was used to get IC50 values. The bottom of the plates was pasted with white back seal and luminescence was recorded with Enspire or Envision.

SW480 cells = test: SW480 Cellular Proliferation Assay (CellTiter-Glo); format: cell-based; conditions: Homo sapiens, 96 h, 4 days
Description: Cells were treated with compounds diluted in DMSO and a 10 point 3-fold serial dilutions. Plates were placed in 37° C., 5% CO2 for to incubate for 4 days. Before they were developed by adding 100 μL of CellTiter-Glo reagent (Promega) to the assay plate, plates were shaken briefly for 2 mins and allowed to incubate at RT for 60 mins. The bottom of the plates was pasted with white back seal and luminescence was recorded with Enspire or Envision.

Chain of Wee1 kinase (P30291 whole entry): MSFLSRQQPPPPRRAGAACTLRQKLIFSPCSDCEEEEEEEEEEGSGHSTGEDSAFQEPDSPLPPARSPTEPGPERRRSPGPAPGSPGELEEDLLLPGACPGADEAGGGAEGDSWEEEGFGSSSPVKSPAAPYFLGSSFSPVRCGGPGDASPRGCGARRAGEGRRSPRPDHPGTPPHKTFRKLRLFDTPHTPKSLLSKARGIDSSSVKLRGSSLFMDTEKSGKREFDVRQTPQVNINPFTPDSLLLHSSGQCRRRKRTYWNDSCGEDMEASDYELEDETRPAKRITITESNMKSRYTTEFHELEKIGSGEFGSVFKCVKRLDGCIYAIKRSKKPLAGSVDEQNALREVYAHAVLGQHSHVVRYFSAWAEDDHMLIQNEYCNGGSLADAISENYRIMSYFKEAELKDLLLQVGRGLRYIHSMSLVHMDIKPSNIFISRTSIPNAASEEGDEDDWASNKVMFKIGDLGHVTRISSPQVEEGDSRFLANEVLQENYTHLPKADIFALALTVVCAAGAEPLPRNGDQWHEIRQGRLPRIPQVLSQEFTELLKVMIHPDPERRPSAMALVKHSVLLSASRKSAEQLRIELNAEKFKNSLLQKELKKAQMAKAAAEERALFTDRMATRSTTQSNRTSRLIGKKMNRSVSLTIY

IC50 (Wee1 kinase) [nM] | IC50 (SW480 cells) [nM] | Compound | IC50 (H23 cells) [nM]
< 10 | > 1000 | C=CCn1c(=O)c2cnc(Nc3ccc4c(c3)CCNC4)nc2n1-c1cccc(C(C)(C)O)n1 [Example 15, 2-Allyl-1-(6-(2-hydroxypropan-2-yl)pyridin-2-yl)-6-((1,2,3,4-tetrahydroisoquinolin-6-yl)amino)-1,2-dihydro-3H-pyrazolo[3,4-d]pyrimidin-3-one hydrogen chloride] | 100 to 1000
< 10 | > 1000 | C=CCn1c(=O)c2cnc(Nc3ccc4c(c3)CCN(C)C4)nc2n1-c1cccc(C(C)(C)O)n1 [Example 16, 2-Allyl-1-(6-(2-hydroxypropan-2-yl)pyridin-2-yl)-6-((2-methyl-1,2,3,4-tetrahydroisoquinolin-6-yl)amino)-1,2-dihydro-3H-pyrazolo[3,4-d]pyrimidin-3-one] | < 100
< 10 | 100 to 1000 | C=CCn1c(=O)c2cnc(Nc3ccc4c(c3)C(=O)N(C)CC4)nc2n1-c1cccc(C(C)(C)O)n1 [Example 20, 7-((2-Allyl-1-(6-(2-hydroxypropan-2-yl)pyridin-2-yl)-3-oxo-2,3-dihydro-H-pyrazolo[3,4-d]pyrimidin-6-yl)amino)-2-methyl-3,4-dihydroisoquinolin-1(2H)-one] | 100 to 1000

Continued, compound first:

Compound | IC50 (Wee1 kinase) [nM] | IC50 (SW480 cells) [nM] | IC50 (H23 cells) [nM]
C=CCn1c(=O)c2cnc(Nc3ccc4c(c3)CN(CCO)CC4)nc2n1-c1cccc(C(C)(C)O)n1 [Example 13, 2-Allyl-6-((2-(2-hydroxyethyl)-1,2,3,4-tetrahydroisoquinolin-7-yl)amino)-1-(6-(2-hydroxypropan-2-yl)pyridin-2-yl)-1,2-dihydro-3H-pyrazolo[3,4-d]pyrimidin-3-one hydrochloride] | < 10 | > 1000 | 100 to 1000
C=CCn1c(=O)c2cnc(Nc3ccc4c(c3)C(=O)NCC4)nc2n1-c1cccc(C(C)(C)O)n1 [Example 19, 7-((2-Allyl-1-(6-(2-hydroxypropan-2-yl)pyridin-2-yl)-3-oxo-2,3-dihydro-1H-pyrazolo[3,4-d]pyrimidin-6-yl)amino)-3,4-dihydroisoquinolin-1(2H)-one] | < 10 | > 1000 | > 1000
C=CCn1c(=O)c2cnc(Nc3ccc4c(c3)CC(N(C)C)C4)nc2n1-c1cccc(C(C)(C)O)n1 (stereo not drawn) [Example 22, 2-allyl-6-((2-(dimethylamino)-2,3-dihydro-1H-inden-5-yl)amino)-1-(6-(2-hydroxypropan-2-yl)pyridin-2-yl)-1,2-dihydro-3H-pyrazolo[3,4-d]pyrimidin-3-one] | < 10 | > 1000 | 100 to 1000
